The values that follow come from PMC5933782, “Molecular structures of cdc2-like kinases in complex with a new inhibitor chemotype” (PLoS ONE, 2018).

Sequence of CLK4 (O35493 whole entry): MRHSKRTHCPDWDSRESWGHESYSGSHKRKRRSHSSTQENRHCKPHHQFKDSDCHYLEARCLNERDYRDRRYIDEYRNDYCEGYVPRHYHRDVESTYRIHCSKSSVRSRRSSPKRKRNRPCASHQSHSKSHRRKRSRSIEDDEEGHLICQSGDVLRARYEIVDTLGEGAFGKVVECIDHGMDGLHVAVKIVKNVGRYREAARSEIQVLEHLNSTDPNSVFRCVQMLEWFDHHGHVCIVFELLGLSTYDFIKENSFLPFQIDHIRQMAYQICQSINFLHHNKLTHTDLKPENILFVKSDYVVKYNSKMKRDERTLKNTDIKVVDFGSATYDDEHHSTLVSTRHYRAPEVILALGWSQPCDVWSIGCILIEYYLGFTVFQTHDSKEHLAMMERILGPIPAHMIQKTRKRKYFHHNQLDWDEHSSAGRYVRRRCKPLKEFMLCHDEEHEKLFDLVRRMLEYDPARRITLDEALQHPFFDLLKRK
T4 sequence (Q00535 whole entry): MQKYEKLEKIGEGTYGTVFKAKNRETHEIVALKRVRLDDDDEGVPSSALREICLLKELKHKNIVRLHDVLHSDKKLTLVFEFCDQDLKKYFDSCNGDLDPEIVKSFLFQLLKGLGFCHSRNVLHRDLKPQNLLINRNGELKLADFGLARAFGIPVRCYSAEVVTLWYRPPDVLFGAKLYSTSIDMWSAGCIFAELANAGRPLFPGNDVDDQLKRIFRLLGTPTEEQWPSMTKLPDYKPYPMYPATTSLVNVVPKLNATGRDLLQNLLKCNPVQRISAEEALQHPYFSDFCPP
T4 sequence (Q15078 99-307 partner limits assumed): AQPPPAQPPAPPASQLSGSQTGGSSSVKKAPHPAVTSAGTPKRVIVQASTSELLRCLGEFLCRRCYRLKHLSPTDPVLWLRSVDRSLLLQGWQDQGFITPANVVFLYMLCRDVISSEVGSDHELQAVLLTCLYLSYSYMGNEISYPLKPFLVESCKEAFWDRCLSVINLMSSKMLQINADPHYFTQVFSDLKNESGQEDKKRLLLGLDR
Sequence of CLK3 (O35492 whole entry): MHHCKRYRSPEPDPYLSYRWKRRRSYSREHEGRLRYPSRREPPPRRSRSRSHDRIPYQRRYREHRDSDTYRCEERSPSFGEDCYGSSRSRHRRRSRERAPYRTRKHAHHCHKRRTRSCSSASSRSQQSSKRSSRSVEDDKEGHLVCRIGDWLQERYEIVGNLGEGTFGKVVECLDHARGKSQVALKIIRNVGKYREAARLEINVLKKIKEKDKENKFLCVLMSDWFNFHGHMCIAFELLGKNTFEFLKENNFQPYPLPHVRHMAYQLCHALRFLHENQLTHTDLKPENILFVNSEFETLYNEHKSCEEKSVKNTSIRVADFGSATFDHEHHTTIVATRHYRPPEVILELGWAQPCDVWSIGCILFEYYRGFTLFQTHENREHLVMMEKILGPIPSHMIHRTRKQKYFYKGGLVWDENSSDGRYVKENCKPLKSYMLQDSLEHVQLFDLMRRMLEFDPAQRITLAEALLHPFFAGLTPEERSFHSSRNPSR
Sequence of CDK9/cyclin T (P50750 whole entry): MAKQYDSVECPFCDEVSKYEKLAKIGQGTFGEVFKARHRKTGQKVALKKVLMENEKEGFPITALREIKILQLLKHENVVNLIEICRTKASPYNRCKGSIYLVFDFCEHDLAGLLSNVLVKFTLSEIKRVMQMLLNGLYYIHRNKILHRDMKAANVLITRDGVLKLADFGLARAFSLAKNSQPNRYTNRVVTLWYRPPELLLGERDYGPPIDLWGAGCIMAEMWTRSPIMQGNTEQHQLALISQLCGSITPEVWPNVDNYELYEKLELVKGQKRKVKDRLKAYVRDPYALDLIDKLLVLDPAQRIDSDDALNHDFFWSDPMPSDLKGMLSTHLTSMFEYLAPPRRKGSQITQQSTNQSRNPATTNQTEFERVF
Sequence of CDK9/cyclin T (O60563 whole entry partner): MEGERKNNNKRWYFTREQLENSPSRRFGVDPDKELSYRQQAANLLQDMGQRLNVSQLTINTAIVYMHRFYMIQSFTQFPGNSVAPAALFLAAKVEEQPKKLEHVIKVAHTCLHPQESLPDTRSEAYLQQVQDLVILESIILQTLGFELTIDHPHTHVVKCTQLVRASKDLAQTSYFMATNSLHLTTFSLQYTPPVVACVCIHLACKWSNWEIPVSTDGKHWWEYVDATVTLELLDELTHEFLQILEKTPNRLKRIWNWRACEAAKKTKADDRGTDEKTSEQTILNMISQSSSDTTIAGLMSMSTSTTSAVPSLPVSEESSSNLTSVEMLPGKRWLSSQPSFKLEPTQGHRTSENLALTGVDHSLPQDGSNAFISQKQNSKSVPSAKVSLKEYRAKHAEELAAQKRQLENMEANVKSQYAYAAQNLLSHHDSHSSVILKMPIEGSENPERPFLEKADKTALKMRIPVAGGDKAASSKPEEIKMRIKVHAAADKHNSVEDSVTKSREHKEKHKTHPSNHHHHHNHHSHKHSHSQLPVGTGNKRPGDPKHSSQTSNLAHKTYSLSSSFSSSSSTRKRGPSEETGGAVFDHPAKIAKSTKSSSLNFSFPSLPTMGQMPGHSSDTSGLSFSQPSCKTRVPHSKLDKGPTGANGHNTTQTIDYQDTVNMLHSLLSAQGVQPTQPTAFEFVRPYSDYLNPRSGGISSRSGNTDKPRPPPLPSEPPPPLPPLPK

One experiment has as its target CDK9/cyclin T (Homo sapiens, UniProt P50750). As to the kind of experiment: radiometric protein kinase assay.
Conditions: not given
For `O=C1NCc2ccc3c(-c4ccc(Cl)c(Cl)c4)c[nH]c3c21` [8e, 3-(3,4-Dichlorophenyl)-6,7-dihydropyrrolo[3,4-g]indol-8(1H)-one], the IC50 was greater than 10000 nM.
Still for that read-out and setting: the figure for `O=C1NCc2ccc3c(-c4cccc(O)c4)c[nH]c3c21` [8g, 3-(3-Hydroxyphenyl)-6,7-dihydropyrrolo[3,4-g]indol-8(1H)-one] is 1100 nM.

Another experiment concerns the target DYRK1A (Homo sapiens, UniProt Q13627). The experiment can be described thus: radiometric protein kinase assay. Format: biochemical. As to conditions: 15 μmol/L ATP; read-out: IC50 DYRK 1A.
`O=C1NCc2ccc3c(-c4ccc(Cl)c(Cl)c4)c[nH]c3c21` [8e, 3-(3,4-Dichlorophenyl)-6,7-dihydropyrrolo[3,4-g]indol-8(1H)-one]: the IC50 was greater than 10000 nM.
The same measure, in the same setting: then `O=C1NCc2ccc3c(-c4cccc(O)c4)c[nH]c3c21` [8g, 3-(3-Hydroxyphenyl)-6,7-dihydropyrrolo[3,4-g]indol-8(1H)-one], with 740 nM.

In the next experiment the target is DYRK1B (Homo sapiens, UniProt Q9Y463). As to the kind of experiment: radiometric protein kinase assay. As to conditions: 15 μmol/L ATP; read-out: IC50 DYRK 1B. Format: biochemical.
Sequence of DYRK1B (Q9Y463 whole entry): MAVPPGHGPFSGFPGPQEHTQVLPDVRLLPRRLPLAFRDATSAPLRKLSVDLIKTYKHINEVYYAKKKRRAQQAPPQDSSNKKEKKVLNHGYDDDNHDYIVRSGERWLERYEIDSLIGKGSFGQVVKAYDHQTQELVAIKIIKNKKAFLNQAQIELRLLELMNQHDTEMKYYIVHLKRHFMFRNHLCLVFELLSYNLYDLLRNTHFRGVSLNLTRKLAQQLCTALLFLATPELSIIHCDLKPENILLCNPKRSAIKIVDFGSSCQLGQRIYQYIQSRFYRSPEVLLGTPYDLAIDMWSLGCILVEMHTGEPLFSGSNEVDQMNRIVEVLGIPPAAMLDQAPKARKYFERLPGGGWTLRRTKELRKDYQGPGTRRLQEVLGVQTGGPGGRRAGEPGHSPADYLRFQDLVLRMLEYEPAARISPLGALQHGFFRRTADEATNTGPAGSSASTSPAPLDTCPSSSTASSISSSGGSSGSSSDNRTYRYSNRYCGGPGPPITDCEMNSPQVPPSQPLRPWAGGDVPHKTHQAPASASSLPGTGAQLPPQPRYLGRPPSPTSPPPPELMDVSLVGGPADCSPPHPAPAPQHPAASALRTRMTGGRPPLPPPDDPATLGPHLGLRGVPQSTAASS
As for `O=C1NCc2ccc3c(-c4ccc(Cl)c(Cl)c4)c[nH]c3c21` [8e, 3-(3,4-Dichlorophenyl)-6,7-dihydropyrrolo[3,4-g]indol-8(1H)-one], the IC50 is greater than 10000 nM.
On the same count and under the same terms, then `O=C1NCc2ccc3c(-c4cccc(O)c4)c[nH]c3c21` [8g, 3-(3-Hydroxyphenyl)-6,7-dihydropyrrolo[3,4-g]indol-8(1H)-one], with 390 nM.

Another experiment addresses CLK4 (Mus musculus, UniProt O35493). As to the kind of experiment: radiometric protein kinase assay.
Conditions: not given
The compound `O=C1NCc2ccc3c(-c4ccc(Cl)c(Cl)c4)c[nH]c3c21` [8e, 3-(3,4-Dichlorophenyl)-6,7-dihydropyrrolo[3,4-g]indol-8(1H)-one] registered an IC50 of 130 nM.
In turn, `O=C1NCc2ccc3c(-c4cccc(O)c4)c[nH]c3c21` [8g, 3-(3-Hydroxyphenyl)-6,7-dihydropyrrolo[3,4-g]indol-8(1H)-one] displayed an IC50 of 81 nM.

The target in a further experiment is T1, DYRK3 (Homo sapiens, UniProt O43781).
T1 sequence (O43781 1-588): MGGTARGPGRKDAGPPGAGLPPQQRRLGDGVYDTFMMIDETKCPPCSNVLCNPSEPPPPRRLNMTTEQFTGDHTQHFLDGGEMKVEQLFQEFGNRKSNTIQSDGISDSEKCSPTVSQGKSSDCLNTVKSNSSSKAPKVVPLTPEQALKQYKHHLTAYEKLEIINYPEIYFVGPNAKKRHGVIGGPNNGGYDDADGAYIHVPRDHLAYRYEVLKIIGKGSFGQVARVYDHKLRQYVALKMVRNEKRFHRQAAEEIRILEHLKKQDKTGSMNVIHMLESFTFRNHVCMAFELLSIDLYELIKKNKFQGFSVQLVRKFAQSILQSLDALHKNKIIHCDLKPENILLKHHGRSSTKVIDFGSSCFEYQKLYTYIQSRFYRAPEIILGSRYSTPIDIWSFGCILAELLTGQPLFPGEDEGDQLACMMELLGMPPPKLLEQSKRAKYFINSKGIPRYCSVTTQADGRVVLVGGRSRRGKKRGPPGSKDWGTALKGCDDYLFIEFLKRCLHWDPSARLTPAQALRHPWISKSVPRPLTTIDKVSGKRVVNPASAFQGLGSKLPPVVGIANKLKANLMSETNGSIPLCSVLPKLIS
The experiment can be described thus: radiometric protein kinase assay. The class given is biochemical. As to conditions: 15 μmol/L ATP; read-out: IC50 DYRK 3.
As to `O=C1NCc2ccc3c(-c4ccc(Cl)c(Cl)c4)c[nH]c3c21` [8e, 3-(3,4-Dichlorophenyl)-6,7-dihydropyrrolo[3,4-g]indol-8(1H)-one], the IC50 was greater than 10000 nM.
With `O=C1NCc2ccc3c(-c4cccc(O)c4)c[nH]c3c21` [8g, 3-(3-Hydroxyphenyl)-6,7-dihydropyrrolo[3,4-g]indol-8(1H)-one], the IC50 is 2200 nM.

The next experiment addresses T2, DYRK2 (Homo sapiens, UniProt Q92630).
T2 sequence (Q92630 1-601): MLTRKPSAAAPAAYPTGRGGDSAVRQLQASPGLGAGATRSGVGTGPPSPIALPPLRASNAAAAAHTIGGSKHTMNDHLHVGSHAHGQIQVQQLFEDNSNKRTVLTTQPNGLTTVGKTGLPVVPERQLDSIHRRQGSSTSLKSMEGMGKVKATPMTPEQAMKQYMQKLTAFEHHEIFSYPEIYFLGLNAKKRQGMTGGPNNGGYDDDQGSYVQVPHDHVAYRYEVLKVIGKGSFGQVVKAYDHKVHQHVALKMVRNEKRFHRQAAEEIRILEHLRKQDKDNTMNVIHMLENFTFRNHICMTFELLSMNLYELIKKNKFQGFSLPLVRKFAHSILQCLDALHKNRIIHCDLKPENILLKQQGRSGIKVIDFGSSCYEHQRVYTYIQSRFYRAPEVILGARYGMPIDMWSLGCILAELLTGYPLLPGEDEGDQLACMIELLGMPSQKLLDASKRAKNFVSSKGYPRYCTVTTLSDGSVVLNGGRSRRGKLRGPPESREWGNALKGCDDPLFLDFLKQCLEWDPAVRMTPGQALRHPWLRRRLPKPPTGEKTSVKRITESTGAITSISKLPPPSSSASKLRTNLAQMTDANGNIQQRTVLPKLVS
The experiment can be described thus: radiometric protein kinase assay. As to conditions: 15 μmol/L ATP; read-out: IC50 DYRK 2. The class given is biochemical.
For `O=C1NCc2ccc3c(-c4ccc(Cl)c(Cl)c4)c[nH]c3c21` [8e, 3-(3,4-Dichlorophenyl)-6,7-dihydropyrrolo[3,4-g]indol-8(1H)-one], the IC50 was greater than 10000 nM.
Still for that read-out and setting: then `O=C1NCc2ccc3c(-c4cccc(O)c4)c[nH]c3c21` [8g, 3-(3-Hydroxyphenyl)-6,7-dihydropyrrolo[3,4-g]indol-8(1H)-one], with 590 nM.

In a further experiment the target is T3, CDK2/cyclin A (Homo sapiens, UniProt P24941).
T3 construct: made in house
The experiment can be described thus: radiometric protein kinase assay. As to conditions: 15 μmol/L ATP; read-out: IC50 CDK2/cyclinA. The class given is biochemical.
With `O=C1NCc2ccc3c(-c4ccc(Cl)c(Cl)c4)c[nH]c3c21` [8e, 3-(3,4-Dichlorophenyl)-6,7-dihydropyrrolo[3,4-g]indol-8(1H)-one], the IC50 is greater than 10000 nM.
The same measure, in the same setting: the figure for `O=C1NCc2ccc3c(-c4cccc(O)c4)c[nH]c3c21` [8g, 3-(3-Hydroxyphenyl)-6,7-dihydropyrrolo[3,4-g]indol-8(1H)-one] is greater than 10000 nM.

In a further experiment the target is CLK2 (Mus musculus, UniProt O35491). As to the kind of experiment: radiometric protein kinase assay.
Sequence of CLK2 (O35491 whole entry): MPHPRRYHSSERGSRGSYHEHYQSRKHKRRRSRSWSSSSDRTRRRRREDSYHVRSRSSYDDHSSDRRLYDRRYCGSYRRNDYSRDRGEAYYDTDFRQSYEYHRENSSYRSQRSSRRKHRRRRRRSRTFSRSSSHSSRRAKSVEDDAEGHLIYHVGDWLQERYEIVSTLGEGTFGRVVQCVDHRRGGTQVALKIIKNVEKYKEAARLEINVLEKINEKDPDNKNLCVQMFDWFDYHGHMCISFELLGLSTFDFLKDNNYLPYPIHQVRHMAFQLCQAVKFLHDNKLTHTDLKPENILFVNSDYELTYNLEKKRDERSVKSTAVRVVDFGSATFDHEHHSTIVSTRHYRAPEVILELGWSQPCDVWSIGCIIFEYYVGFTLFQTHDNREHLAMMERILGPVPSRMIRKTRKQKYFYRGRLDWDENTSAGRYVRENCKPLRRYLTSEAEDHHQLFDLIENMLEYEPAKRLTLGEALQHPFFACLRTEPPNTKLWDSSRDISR
Conditions: not given
Turning to `O=C1NCc2ccc3c(-c4ccc(Cl)c(Cl)c4)c[nH]c3c21` [8e, 3-(3,4-Dichlorophenyl)-6,7-dihydropyrrolo[3,4-g]indol-8(1H)-one], the IC50 is 690 nM.
The same measure, in the same setting: then `O=C1NCc2ccc3c(-c4cccc(O)c4)c[nH]c3c21` [8g, 3-(3-Hydroxyphenyl)-6,7-dihydropyrrolo[3,4-g]indol-8(1H)-one], with 82 nM.

The target of a further experiment is CDK1/cyclin B. As to the kind of experiment: radiometric protein kinase assay. The class given is biochemical, starfish. As to conditions: 15 μmol/L ATP.
Take `O=C1NCc2ccc3c(-c4ccc(Cl)c(Cl)c4)c[nH]c3c21` [8e, 3-(3,4-Dichlorophenyl)-6,7-dihydropyrrolo[3,4-g]indol-8(1H)-one]: the IC50 was greater than 10000 nM.
In the case of `O=C1NCc2ccc3c(-c4cccc(O)c4)c[nH]c3c21` [8g, 3-(3-Hydroxyphenyl)-6,7-dihydropyrrolo[3,4-g]indol-8(1H)-one], the IC50 is greater than 10000 nM.

In a further experiment the target is GSK-3. As to the kind of experiment: radiometric protein kinase assay. As to conditions: 15 μmol/L ATP; read-out: IC50 GSK3. Format: biochemical, porcine.
Consider `O=C1NCc2ccc3c(-c4ccc(Cl)c(Cl)c4)c[nH]c3c21` [8e, 3-(3,4-Dichlorophenyl)-6,7-dihydropyrrolo[3,4-g]indol-8(1H)-one], for which the IC50 was greater than 10000 nM.
Same read-out and setting: the figure for `O=C1NCc2ccc3c(-c4cccc(O)c4)c[nH]c3c21` [8g, 3-(3-Hydroxyphenyl)-6,7-dihydropyrrolo[3,4-g]indol-8(1H)-one] is greater than 10000 nM.

The next experiment concerns the target T4, CDK5/p25 (Homo sapiens, UniProt Q00535).
T4 construct: made in house
The experiment can be described thus: radiometric protein kinase assay. Format: biochemical. As to conditions: 15 μmol/L ATP.
The compound `O=C1NCc2ccc3c(-c4ccc(Cl)c(Cl)c4)c[nH]c3c21` [8e, 3-(3,4-Dichlorophenyl)-6,7-dihydropyrrolo[3,4-g]indol-8(1H)-one] displayed an IC50 greater than 10000 nM.
`O=C1NCc2ccc3c(-c4cccc(O)c4)c[nH]c3c21` [8g, 3-(3-Hydroxyphenyl)-6,7-dihydropyrrolo[3,4-g]indol-8(1H)-one]: the IC50 was greater than 10000 nM.

In another experiment the target is CK1δ/ε. The experiment can be described thus: radiometric protein kinase assay. The class given is biochemical, porcine. As to conditions: 15 μmol/L ATP; read-out: IC50 CK1.
For the compound `O=C1NCc2ccc3c(-c4ccc(Cl)c(Cl)c4)c[nH]c3c21` [8e, 3-(3,4-Dichlorophenyl)-6,7-dihydropyrrolo[3,4-g]indol-8(1H)-one], the IC50 is greater than 10000 nM.
On the same count and under the same terms, the figure for `O=C1NCc2ccc3c(-c4cccc(O)c4)c[nH]c3c21` [8g, 3-(3-Hydroxyphenyl)-6,7-dihydropyrrolo[3,4-g]indol-8(1H)-one] is greater than 10000 nM.

The next experiment concerns the target CLK3 (Mus musculus, UniProt O35492). The experiment can be described thus: radiometric protein kinase assay.
Conditions: not given
Turning to `O=C1NCc2ccc3c(-c4ccc(Cl)c(Cl)c4)c[nH]c3c21` [8e, 3-(3,4-Dichlorophenyl)-6,7-dihydropyrrolo[3,4-g]indol-8(1H)-one], the IC50 was greater than 10000 nM.
`O=C1NCc2ccc3c(-c4cccc(O)c4)c[nH]c3c21` [8g, 3-(3-Hydroxyphenyl)-6,7-dihydropyrrolo[3,4-g]indol-8(1H)-one]: the IC50 is 1700 nM.

For the next experiment, the target named is CLK1 (Mus musculus, UniProt P22518). As to the kind of experiment: radiometric protein kinase assay.
Sequence of CLK1 (P22518 whole entry): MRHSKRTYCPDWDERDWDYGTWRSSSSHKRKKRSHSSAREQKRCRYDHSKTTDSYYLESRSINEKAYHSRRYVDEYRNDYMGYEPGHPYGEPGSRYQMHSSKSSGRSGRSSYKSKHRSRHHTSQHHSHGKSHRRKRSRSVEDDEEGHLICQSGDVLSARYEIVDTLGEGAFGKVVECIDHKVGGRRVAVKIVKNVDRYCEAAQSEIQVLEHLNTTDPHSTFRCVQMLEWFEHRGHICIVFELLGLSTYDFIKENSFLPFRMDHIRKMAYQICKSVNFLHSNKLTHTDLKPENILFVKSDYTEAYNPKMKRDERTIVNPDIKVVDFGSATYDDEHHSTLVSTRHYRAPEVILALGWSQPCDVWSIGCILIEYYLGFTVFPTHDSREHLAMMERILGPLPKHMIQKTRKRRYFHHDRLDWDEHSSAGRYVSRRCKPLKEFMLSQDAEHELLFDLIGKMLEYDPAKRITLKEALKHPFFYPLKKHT
Conditions: not given
`O=C1NCc2ccc3c(-c4ccc(Cl)c(Cl)c4)c[nH]c3c21` [8e, 3-(3,4-Dichlorophenyl)-6,7-dihydropyrrolo[3,4-g]indol-8(1H)-one]: the IC50 is 110 nM.
Still for that read-out and setting: the figure for `O=C1NCc2ccc3c(-c4cccc(O)c4)c[nH]c3c21` [8g, 3-(3-Hydroxyphenyl)-6,7-dihydropyrrolo[3,4-g]indol-8(1H)-one] is 44 nM.
